# Measurements taken from PubChem BioAssay (NCI).
#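 Method: 48-hour compound exposure of cells in 96-well plates, five concentrations, linear interpolation of endpoints. Abbreviation: GI50, concentration required for 50% inhibition of growth. TGI: concentration producing complete growth inhibition.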
# Key:
# Experiment in all cases: growth of human tumour cells (NCI), 48 h
# SK-OV-3 ovarian = test system: SK-OV-3 ovarian
# UACC-257 melanoma = test system: UACC-257 melanoma
# OVCAR-5 ovarian = test system: OVCAR-5 ovarian
# MDA-MB-231 breast = test system: MDA-MB-231 breast
# NCI-H460 lung = test system: NCI-H460 lung
# HT29 colon = test system: HT29 colon
# SNB-75 CNS = test system: SNB-75 CNS
# T-47D breast = test system: T-47D breast
# MCF7 breast = test system: MCF7 breast
# HCT-116 colon = test system: HCT-116 colon
# OVCAR-8 ovarian = test system: OVCAR-8 ovarian
# SR leukemia = test system: SR leukemia
# BT-549 breast = test system: BT-549 breast
# SW-620 colon = test system: SW-620 colon
# SK-MEL-5 melanoma = test system: SK-MEL-5 melanoma
# 786-0 renal = test system: 786-0 renal
# SN12C renal = test system: SN12C renal
# HL-60(TB) leukemia = test system: HL-60(TB) leukemia
# EKVX NSCLC = test system: EKVX NSCLC
# OVCAR-3 ovarian = test system: OVCAR-3 ovarian
# K-562 leukemia = test system: K-562 leukemia
# UACC-62 melanoma = test system: UACC-62 melanoma
# CAKI-1 renal = test system: CAKI-1 renal
# PC-3 prostate = test system: PC-3 prostate
# RXF 393 renal = test system: RXF 393 renal
# MOLT-4 leukemia = test system: MOLT-4 leukemia
# NCI-H522 lung = test system: NCI-H522 lung
# IGROV1 ovarian = test system: IGROV1 ovarian
# TK-10 renal = test system: TK-10 renal
# COLO 205 colon = test system: COLO 205 colon
# HCT-15 colon = test system: HCT-15 colon
# DU-145 prostate = test system: DU-145 prostate
# MDA-MB-468 breast = test system: MDA-MB-468 breast
# KM12 colon = test system: KM12 colon
# MDA-MB-435 = test system: MDA-MB-435
# A549 NSCLC = test system: A549 NSCLC
# OVCAR-4 ovarian = test system: OVCAR-4 ovarian
# M14 melanoma = test system: M14 melanoma
# HOP-62 NSCLC = test system: HOP-62 NSCLC
# ACHN renal = test system: ACHN renal
# RPMI-8226 leukemia = test system: RPMI-8226 leukemia
# SK-MEL-28 melanoma = test system: SK-MEL-28 melanoma
# SNB-19 CNS = test system: SNB-19 CNS
# SF-295 CNS = test system: SF-295 CNS
# A498 renal = test system: A498 renal
# LOX IMVI melanoma = test system: LOX IMVI melanoma
# HCC-2998 colon = test system: HCC-2998 colon
# SK-MEL-2 melanoma = test system: SK-MEL-2 melanoma
# SF-268 CNS = test system: SF-268 CNS
# HS 578T breast = test system: HS 578T breast
# HOP-92 NSCLC = test system: HOP-92 NSCLC
# SF-539 CNS = test system: SF-539 CNS
# MALME-3M melanoma = test system: MALME-3M melanoma
# UO-31 renal = test system: UO-31 renal
# U251 CNS = test system: U251 CNS
# CCRF-CEM leukemia = test system: CCRF-CEM leukemia
# NCI-H23 lung = test system: NCI-H23 lung
# NCI-H226 lung = test system: NCI-H226 lung
structure (smiles),measurement,setting,value
Nc1n[nH]c2cccc(C#Cc3cccc(NC(=O)Nc4cc(C(F)(F)F)cc(C(F)(F)F)c4)c3)c12,GI50,SK-OV-3 ovarian,3.87 µM
same,TGI,SK-OV-3 ovarian,12.3 µM
same,GI50,UACC-257 melanoma,2.59 µM
same,TGI,UACC-257 melanoma,8.44 µM
same,GI50,OVCAR-5 ovarian,2.2 µM
same,TGI,OVCAR-5 ovarian,10.4 µM
same,GI50,MDA-MB-231 breast,1.06 µM
same,TGI,MDA-MB-231 breast,2.45 µM
same,GI50,NCI-H460 lung,2.04 µM
same,TGI,NCI-H460 lung,5.14 µM
same,GI50,HT29 colon,1.67 µM
same,TGI,HT29 colon,3.26 µM
same,GI50,SNB-75 CNS,0.287 µM
same,TGI,SNB-75 CNS,10.6 µM
same,GI50,T-47D breast,2.73 µM
same,TGI,T-47D breast,11 µM
same,GI50,MCF7 breast,2.52 µM
same,TGI,MCF7 breast,7.36 µM
same,GI50,HCT-116 colon,2.07 µM
same,TGI,HCT-116 colon,5.64 µM
same,GI50,OVCAR-8 ovarian,2.93 µM
same,TGI,OVCAR-8 ovarian,10 µM
same,GI50,SR leukemia,2.58 µM
same,TGI,SR leukemia,15.3 µM
same,GI50,BT-549 breast,1.97 µM
same,TGI,BT-549 breast,5.3 µM
same,GI50,SW-620 colon,1.96 µM
same,TGI,SW-620 colon,3.8 µM
same,GI50,SK-MEL-5 melanoma,1.88 µM
same,TGI,SK-MEL-5 melanoma,3.69 µM
same,GI50,786-0 renal,2.16 µM
same,TGI,786-0 renal,4.78 µM
same,GI50,SN12C renal,1.52 µM
same,TGI,SN12C renal,3.31 µM
same,GI50,HL-60(TB) leukemia,1.81 µM
same,TGI,HL-60(TB) leukemia,7.04 µM
same,GI50,EKVX NSCLC,2.71 µM
same,TGI,EKVX NSCLC,8.02 µM
same,GI50,OVCAR-3 ovarian,2.67 µM
same,TGI,OVCAR-3 ovarian,8.06 µM
same,GI50,K-562 leukemia,2.72 µM
same,TGI,K-562 leukemia,> 100 µM
same,GI50,UACC-62 melanoma,2.11 µM
same,TGI,UACC-62 melanoma,4.9 µM
same,GI50,CAKI-1 renal,2.36 µM
same,TGI,CAKI-1 renal,11.5 µM
same,GI50,PC-3 prostate,2.23 µM
same,TGI,PC-3 prostate,6.96 µM
same,GI50,RXF 393 renal,2.55 µM
same,TGI,RXF 393 renal,6.69 µM
same,GI50,MOLT-4 leukemia,2.77 µM
same,TGI,MOLT-4 leukemia,10.2 µM
same,GI50,NCI-H522 lung,2.37 µM
same,TGI,NCI-H522 lung,7.01 µM
same,GI50,IGROV1 ovarian,2.66 µM
same,TGI,IGROV1 ovarian,7.78 µM
same,GI50,TK-10 renal,4.2 µM
same,TGI,TK-10 renal,12.9 µM
same,GI50,COLO 205 colon,1.88 µM
same,TGI,COLO 205 colon,4 µM
same,GI50,HCT-15 colon,2.48 µM
same,TGI,HCT-15 colon,10.1 µM
same,GI50,DU-145 prostate,3.5 µM
same,TGI,DU-145 prostate,12.5 µM
same,GI50,MDA-MB-468 breast,2.22 µM
same,TGI,MDA-MB-468 breast,6 µM
same,GI50,KM12 colon,1.85 µM
same,TGI,KM12 colon,4.1 µM
same,GI50,MDA-MB-435,1.92 µM
same,TGI,MDA-MB-435,4.18 µM
same,GI50,A549 NSCLC,2.59 µM
same,TGI,A549 NSCLC,11.3 µM
same,GI50,OVCAR-4 ovarian,2.6 µM
same,TGI,OVCAR-4 ovarian,8.39 µM
same,GI50,M14 melanoma,2.02 µM
same,TGI,M14 melanoma,4.55 µM
same,GI50,HOP-62 NSCLC,1.93 µM
same,TGI,HOP-62 NSCLC,4.25 µM
same,GI50,ACHN renal,2.71 µM
same,TGI,ACHN renal,9.39 µM
same,GI50,RPMI-8226 leukemia,2.63 µM
same,TGI,RPMI-8226 leukemia,9.16 µM
same,GI50,SK-MEL-28 melanoma,2.76 µM
same,TGI,SK-MEL-28 melanoma,8.6 µM
same,GI50,SNB-19 CNS,7.62 µM
same,TGI,SNB-19 CNS,21.2 µM
same,GI50,SF-295 CNS,2.32 µM
same,TGI,SF-295 CNS,6.83 µM
same,GI50,A498 renal,3.84 µM
same,TGI,A498 renal,10.4 µM
same,GI50,LOX IMVI melanoma,1.6 µM
same,TGI,LOX IMVI melanoma,2.94 µM
same,GI50,HCC-2998 colon,2.31 µM
same,TGI,HCC-2998 colon,5.07 µM
same,GI50,SK-MEL-2 melanoma,1.62 µM
same,TGI,SK-MEL-2 melanoma,3.34 µM
same,GI50,SF-268 CNS,3.2 µM
same,TGI,SF-268 CNS,14 µM
same,GI50,HS 578T breast,1.97 µM
same,TGI,HS 578T breast,7.7 µM
same,GI50,HOP-92 NSCLC,1.9 µM
same,TGI,HOP-92 NSCLC,5.12 µM
same,GI50,SF-539 CNS,1.52 µM
same,TGI,SF-539 CNS,4.28 µM
same,GI50,MALME-3M melanoma,1.6 µM
same,TGI,MALME-3M melanoma,4.24 µM
same,GI50,UO-31 renal,3.11 µM
same,TGI,UO-31 renal,10.3 µM
same,GI50,U251 CNS,2.3 µM
same,TGI,U251 CNS,6.22 µM
same,GI50,CCRF-CEM leukemia,3.27 µM
same,TGI,CCRF-CEM leukemia,14.2 µM
same,GI50,NCI-H23 lung,2.16 µM
same,TGI,NCI-H23 lung,5.44 µM
same,GI50,NCI-H226 lung,2.82 µM
same,TGI,NCI-H226 lung,9.34 µM
